Assay results published in patent publication US11033556B2, “Bicyclic sulfonamides” (priority 2019, dated 2021).
pEC50: −log10 of the molar value.

test system: HBV; assay: HBV-DNA Antiviral Assay Using HepG2.2.15 Cells; format: cell-based; conditions: Hepatitis B virus, 168 h; HepG2.2.15 cells, extracellular HBV DNA by qPCR, day 7; read-out: EC50
Description: The following assay procedure describes the HBV antiviral assay. This assay uses HepG2.2.15 cells, which have been transfected with HBV genome, and extracellular HBV DNA quantification as endpoint. Cell viability is assessed in parallel by measuring the intracellular ATP content using the CellTiter-Glo® reagent from Promega.
On day 0, HepG2.2.15 cells were seeded in 96-well plates at a density of 6.0×10^4 cells/well(0.1 ml/well). The cells were incubated at 37° C. and 5% CO2.
On day 1, the test articles were diluted and added to cell culture wells (8 concentrations, 4-fold dilution, in duplicate). GLS4, Tenofovir and Sorafenib were used as reference compounds. 100 μl of culture medium containing the compounds was added to the plate, and the final total volume per well was 200 μl. The final concentration of DMSO in the culture medium was 0.5%. The plate map of compound treatment is shown below. The cells were cultured at 37° C. and 5% CO2 for 3 days.
On day 4, the plates were refreshed with culture media with compounds.
On day 7, cell viability was assessed using the CellTiter-Glo®, and the cell culture supernatants were collected for determination of HBV DNA by qPCR.
Extracellular DNA was isolated with QIAamp 96 DNA Blood Kit per the manufacturer's manual. HBV DNA was then quantified by qPCR with HBV specific primers and probes as specified in Table 2 using the FastStart Universal MasterMix from Roche on an ABI-7900HT. The PCR cycle program consisted of 95° C. for 10 min, followed by 40 cycles at 95° C. for 15 sec and 60° C. for 1 min.
A DNA standard was prepared by dilution of the pAAV2 HBV1.3 plasmid with concentrations ranging from 10 to 1×10^7 […] and used to generate a standard curve by plotting Ct value vs. the concentration of the HBV plasmid DNA standard. The quantity of HBV DNA in each sample was determined by interpolating from the standard curve.
Cell viability was calculated as follows: % Cell viability=(luminescence value of test sample−average luminescence value of blank)/(average luminescence value of 0.5% DMSO control−average luminescence of blank)×100%. HBV DNA inhibition was calculated as follows: 100−(HBV DNA copy number of test sample−HBV DNA copy number of ETV)/HBV DNA copy number of 0.5% DMSO control−HBV DNA copy number of ETV)×100%. The CC50, EC50 and EC90 values were determined by dose-response curves fitted by GraphPad Prism using “log (agonist) vs. response—Variable slope”.

Cn1cc2c(c1C(=O)Nc1ccc(F)c(C#N)c1)OC[C@H](C=C(F)F)NS2(=O)=O [Compound 6A] was tested, and the pEC50 was > 6.00.

same assay, conditions: Hepatitis B virus, HepG2.2.15

CC#C[C@H](O)[C@@H]1CCc2c(cn(C)c2C(=O)Nc2ccc(F)c(C#N)c2)S(=O)(=O)N1 [Compound 3C, (3S)—N-(3-cyano-4-fluorophenyl)-3-[(1S)-1-hydroxybut-2-yn-1-yl]-7-methyl-1,1-dioxo-2H,3H,4H,5H-1λ6-pyrrolo[3,4-f][1,2]thiazepine-6-carboxamide] and CC#C[C@@H](O)[C@H]1CCc2c(cn(C)c2C(=O)Nc2ccc(F)c(C#N)c2)S(=O)(=O)N1 [Compound 3A, (3R)—N-(3-cyano-4-fluorophenyl)-3-[(1R)-1-hydroxybut-2-yn-1-yl]-7-methyl-1,1-dioxo-2H,3H,4H,5H-1λ6-pyrrolo[3,4-f][1,2]thiazepine-6-carboxamide] cannot be ordered by pEC50: > 6.00 for the first, > 6.00 for the second.

same assay, conditions: Hepatitis B virus; HepG2.2.15 cells, extracellular HBV DNA by qPCR; one class for the group of four: *at least 2 of the diastereomers have the indicated activity; read-out: EC50

C=C[C@@H](O)[C@@H]1CCc2c(cn(C)c2C(=O)Nc2ccc(F)c(C#N)c2)S(=O)(=O)N1 [Compound 4D, (3S)—N-(3-cyano-4-fluorophenyl)-3-[(1R)-1-hydroxyprop-2-en-1-yl]-7-methyl-1,1-dioxo-2H,3H,4H,5H-1λ6-pyrrolo[3,4-f][1,2]thiazepine-6-carboxamide] and C=C[C@H](O)[C@@H]1CCc2c(cn(C)c2C(=O)Nc2ccc(F)c(C#N)c2)S(=O)(=O)N1 [Compound 4C, (3S)—N-(3-cyano-4-fluorophenyl)-3-[(1S)-1-hydroxyprop-2-en-1-yl]-7-methyl-1,1-dioxo-2H,3H,4H,5H-1λ6-pyrrolo[3,4-f][1,2]thiazepine-6-carboxamide] cannot be ordered by pEC50: > 6.00 for the first, > 6.00 for the second.

C#C[C@H](O)[C@H]1CCc2c(cn(C)c2C(=O)Nc2ccc(F)c(C#N)c2)S(=O)(=O)N1 [Compound 2B, (3R)—N-(3-cyano-4-fluorophenyl)-3-[(1S)-1-hydroxyprop-2-yn-1-yl]-7-methyl-1,1-dioxo-2H,3H,4H,5H-1λ6-pyrrolo[3,4-f][1,2]thiazepine-6-carboxamide] and C#C[C@@H](O)[C@@H]1CCc2c(cn(C)c2C(=O)Nc2ccc(F)c(C#N)c2)S(=O)(=O)N1 [Compound 2D, (3S)—N-(3-cyano-4-fluorophenyl)-3-[(1R)-1-hydroxyprop-2-yn-1-yl]-7-methyl-1,1-dioxo-2H,3H,4H,5H-1λ6-pyrrolo[3,4-f][1,2]thiazepine-6-carboxamide] cannot be ordered by pEC50: > 6.00 for the first, > 6.00 for the second.

test system: genotype D HBV; assay: HBV-DNA Antiviral Assay Using HepG2.117 Cells; format: cell-based; conditions: Hepatitis B virus, HepG2.117, 96 h, intracellular HBV DNA by qPCR, day 4
Description: The following assay procedure describes the HBV antiviral assay, using HepG2.117 cells, which carry a stably integrated genotype D HBV genome under the control of a Tet-off promoter, and intracellular HBV DNA quantification as endpoint. Cell viability is assessed in parallel by measuring the intracellular ATP content using ATPlite (Perkin Elmer).
On day 0, HepG2.117 cells (which are maintained in routine cell culture with doxycycline present in the medium at a final concentration of 1 μg/mL) were seeded in 96-well plates (white with clear bottom) at a density of 2.0×10^4 cells/well (0.1 mL/well) in medium without doxycycline to induce pgRNA transcription and subsequent formation of HBV particles. The cells were incubated at 37° C. and 5% CO2.
On day 1, medium was removed from each well, the test articles were diluted in culture medium without doxcycyline and 100 μL was added to cell culture wells (9 concentrations, 4-fold dilution). For each plate, 6 untreated (merely DMSO) wells were included. The final concentration of DMSO in the culture medium was 2%. Each plate was prepared in duplicate (one for HBV DNA extraction, one for ATPlite measurement). The cells were incubated at 37° C. and 5% CO2 for 3 days.
On day 4, cell viability was assessed using ATPlite and cell lysates were prepared for HBV DNA extraction and subsequent quantification by qPCR.
Medium was removed from each well and 100 μL of 0.33% NP-40 in H2O was added to each well. Plates were sealed, incubated at 4° C. for 5 mins, vortexed extensively and centrifuged briefly. Next, 35 μL of lysate was added to 65 μL QuickExtract DNA Extraction Solution (Epicentre) in a PCR plate for each well. PCR plate was incubated at 65° C. for 6 mins, 98° C. for 2 mins and finally cooled to 4° C. HBV DNA was then quantified by qPCR with HBV-specific primers and probes as specified in Table 4 using the Bio-Rad SSOAdvanced Universal Probes Supermix on a CFX96 machine (Bio-Rad). The PCR cycle program consisted of 95° C. for 3 mins, followed by 40 cycles at 95° C. for 10 sec and 60° C. for 30 sec.
A DNA standard was prepared by dilution of an IDT gBlock corresponding to the amplicon with concentrations ranging from 10^2 to 10^8 copies/input (i.e. per 4 μL) and used to generate a standard curve by plotting Cq values vs. HBV DNA standard concentration. The quantity of HBV DNA in each sample was determined by interpolating from the standard curve.
Cell viability was calculated as follows: % Cell viability=(luminescence value of test sample)/(average luminescence value of 2% DMSO control)×100%. HBV DNA inhibition was calculated as follows: 100−(HBV DNA copy number of test sample)/(average HBV DNA copy number of 2% DMSO control)×100%. No normalization to entecavir was required due to the excellent dynamic window of this assay. The CC50, EC50 and EC90 values were determined by dose-response curves fitted by GraphPad Prism using “log (agonist) vs. response—Variable slope”.

C#CC(O)([C@H]1COc2c(cn(C)c2C(=O)Nc2ccc(F)c(C#N)c2)S(=O)(=O)N1)C(F)(F)F (some centres unmarked) [Compound 37] and C=C[C@](O)([C@@H]1COc2c(cn(C)c2C(=O)Nc2ccc(F)c(C#N)c2)S(=O)(=O)N1)C(F)(F)F [Compound 21] fall in the same range of pEC50: 7.00 to 8.00 for the first, 7.00 to 8.00 for the second.

Compared with C#C[C@@H](O)[C@]1(C)COc2c(cn(C)c2C(=O)Nc2ccc(F)c(C#N)c2)S(=O)(=O)N1 [Compound 42D], C#C[C@@H](O)[C@@]1(C)COc2c(cn(C)c2C(=O)Nc2ccc(F)c(C#N)c2)S(=O)(=O)N1 [Compound 42B] is higher in pEC50: 7.00 to 8.00 for the first, 8.00 to 9.00 for the second.

C=CC[C@@]1(C)COc2c(cn(C)c2C(=O)Nc2ccc(F)c(C#N)c2)S(=O)(=O)N1 [Compound 16B] and C=CC[C@]1(C)COc2c(cn(C)c2C(=O)Nc2ccc(F)c(C#N)c2)S(=O)(=O)N1 [Compound 16A] fall in the same range of pEC50: 8.00 to 9.00 for the first, 8.00 to 9.00 for the second.

C#C[C@@](C)(O)[C@H]1COc2c(cn(C)c2C(=O)Nc2ccc(F)c(C(F)(F)F)c2)S(=O)(=O)N1 [Compound 36B] and C#C[C@@](C)(O)[C@H]1COc2c(cn(C)c2C(=O)Nc2ccc(F)c(C#N)c2)S(=O)(=O)N1 [Compound 35B] fall in the same range of pEC50: 8.00 to 9.00 for the first, 8.00 to 9.00 for the second.

First: C=CC[C@H](O)[C@H]1COc2c(cn(C)c2C(=O)Nc2ccc(F)c(C#N)c2)S(=O)(=O)N1 [Compound 17A]
Second: C=C[C@H](C)[C@H]1COc2c(cn(C)c2C(=O)Nc2ccc(F)c(C#N)c2)S(=O)(=O)N1 [Compound 27C]
The pEC50 of the first is higher: 8.00 to 9.00 for the first, 7.00 to 8.00 for the second. The first is the more potent here.

C=C(C)[C@H]1COc2c(cn(C)c2C(=O)Nc2ccc(F)c(C(F)(F)F)c2)S(=O)(=O)N1 [Compound 33] and C=C(C)[C@H]1COc2c(cn(C)c2C(=O)Nc2ccc(F)c(C#N)c2)S(=O)(=O)N1 [Compound 32] fall in the same range of pEC50: 8.00 to 9.00 for the first, 8.00 to 9.00 for the second.

Compared with C=C[C@]1([C@H](C)O)COc2c(cn(C)c2C(=O)Nc2ccc(F)c(C#N)c2)S(=O)(=O)N1 [Compound 38C], C=C[C@@]1([C@@H](C)O)COc2c(cn(C)c2C(=O)Nc2ccc(F)c(C#N)c2)S(=O)(=O)N1 [Compound 38D] is lower in pEC50: 8.00 to 9.00 for the first, 6.00 to 7.00 for the second. The first is the more potent here.

First: CC#C[C@@H](O)[C@H]1COc2c(cn(C)c2C(=O)Nc2ccc(F)c(C(F)(F)F)c2)S(=O)(=O)N1 [Compound 22B]
Second: CC#C[C@H](O)[C@H]1COc2c(cn(C)c2C(=O)Nc2ccc(F)c(C(F)(F)F)c2)S(=O)(=O)N1 [Compound 22A]
The pEC50 of the first is higher: 8.00 to 9.00 for the first, 7.00 to 8.00 for the second.

C=C[C@]1(C)COc2c(cn(C)c2C(=O)Nc2ccc(F)c(C#N)c2)S(=O)(=O)N1 [Compound 15A] and C=C[C@@]1(C)COc2c(cn(C)c2C(=O)Nc2ccc(F)c(C#N)c2)S(=O)(=O)N1 [Compound 15B] fall in the same range of pEC50: 8.00 to 9.00 for the first, 8.00 to 9.00 for the second.

CC#CC[C@H]1COc2c(cn(C)c2C(=O)Nc2ccc(F)c(C#N)c2)S(=O)(=O)N1 [Compound 46] and C=C[C@](C)(O)[C@H]1COc2c(cn(C)c2C(=O)Nc2ccc(F)c(C#N)c2)S(=O)(=O)N1 [Compound 28B] fall in the same range of pEC50: 8.00 to 9.00 for the first, 8.00 to 9.00 for the second.

C=CC1([C@@H]2COc3c(cn(C)c3C(=O)Nc3ccc(F)c(C#N)c3)S(=O)(=O)N2)CCS(=O)(=O)CC1 [Compound 43B] and C=C[C@]1([C@@H](C)O)COc2c(cn(C)c2C(=O)Nc2ccc(F)c(C#N)c2)S(=O)(=O)N1 [Compound 38B] fall in the same range of pEC50: 7.00 to 8.00 for the first, 7.00 to 8.00 for the second.

First: C=C[C@]1(CO)CCc2c(cn(C)c2C(=O)Nc2ccc(F)c(C#N)c2)S(=O)(=O)N1 [Compound 10B]
Second: C=C[C@]1(CO)COc2c(cn(C)c2C(=O)Nc2ccc(F)c(C(F)(F)F)c2)S(=O)(=O)N1 [Compound 31B]
The pEC50 of the first is lower: 7.00 to 8.00 for the first, 8.00 to 9.00 for the second. The second is the more potent here.

C#C[C@H](O)[C@@]1(C)COc2c(cn(C)c2C(=O)Nc2ccc(F)c(C#N)c2)S(=O)(=O)N1 [Compound 42C] gave a pEC50 of 8.00 to 9.00.
